Data on four molecules can be found in PMC5206802 (Journal of medicinal chemistry, 2016).

Common to all, as to type: cell-based
The test system of one data set is HIV-1 IIIB. The experiment in a line: HIV-1 infection assay using MT-2 cells. The settings on record: Human immunodeficiency virus 1, IIIB, MT2, read-out: EC50 IIIB.
Data set [1] has as its system HIV-1 A17 (K103N and Y181C). The data set can be described thus: microbe, parasite or virus in culture. The following applies: Human immunodeficiency virus 1, MT2, read-out: EC50 A17.
The subject of another data set is MT-2 cells.
The subject of the next data set is HIV-1 NL4-3. The experiment in a line: Inhibition of HIV-1 infection of TZM-bl cells. The settings on record: wild-type NL4-3.

Where only a bound is given, the exact number is not on record here.

For orientation: EC50 means the midpoint of the concentration-response curve. `COCc1cc(N)c(Nc2ccc(C#N)cc2)cc1Oc1c(C)cc(CCC#N)cc1C` [Compound 6k, 5-[4″-(2-Cyanoethyl)-2″,6″-dimethylphenoxy]-N^1-(4′-cyanophenyl)-4-methoxymethylbenzene-1,2-diamine]: the EC50 in the data set on HIV-1 IIIB stood at 3.25 ± 0.23 nM; in data set [1] it was 2.95 ± 0.5 nM. For the same molecule, the “SI (selective index) CC50/EC50(IIIB)” value in the data set on MT-2 cells is recorded as >61,538.
In the same order, the values of `CC(=O)OCc1cc(N)c(Nc2ccc(C#N)cc2)cc1Oc1c(C)cc(CCC#N)cc1C` [Compound 6h, 4-Acetoxymethyl-5-[4″-(2-cyanoethyl)-2″,6″-dimethylphenoxy]-N^1-(4′-cyanophenyl)benzene-1,2-diamine] are 0.96 ± 0.12 nM, 4.92 ± 0.12 nM and 46,667.
In the case of `COC(=O)c1cc(N)c(Nc2ccc(C#N)cc2)cc1Oc1c(OC)cc(CCC#N)cc1OC` [Compound 13c, 5-[4″-(2-Cyanoethyl)-2″,6″-dimethoxyphenoxy]-N^1-(4′-cyanophenyl)-4-methoxycarbonylbenzene-1,2-diamine], the “fold less potent than the corresponding bromo/methoxy-DAANs (14c and 14d)” value in the data set on HIV-1 NL4-3 is “at least 20 fold”.
Still for that read-out and setting: as for `CNC(=O)c1cc(N)c(Nc2ccc(C#N)cc2)cc1Oc1c(OC)cc(CCC#N)cc1OC` [Compound 13d, 5-[4″-(2-Cyanoethyl)-2″,6″-dimethoxyphenoxy]-N^1-(4′-cyanophenyl)-4-methylcarbamoylbenzene-1,2-diamine], the entry is “at least 20 fold”.
